# Key:
# [1] = Tissue levels after 2-hour IV infusion in rats; assay type: in vivo, rat; conditions: for concentration at 4 h: 2 h after end of 2-hour IV infusion; for concentration at 4 h / concentration at 2 h: 10 mg/kg; for concentration at 2 h: end of 2-hour IV infusion
# Method: Levels of EPIs in various tissues were evaluated after 2-hour IV infusion in rats. The rats received 10 mg/kg IV infusion through FVC. Animals were divided into 2 groups: group 1 was sacrificed immediately after the end of infusion and group 2, 2 h or 4 h after the end of infusion. Tissues from each animal were collected, homogenized and compounds were extracted. Tissues were mixed with saline at 1:1 ratio (v/w) in 12×75 mm polypropylene round bottom tubes. The mixtures were homogenized with a Polytron homogenizer (on ice, 3×10-15 seconds with 30 seconds intervals at the setting of 7). 50 μl of homogenized tissue were immediately transferred to an Eppendorf tube and 2-volumes of 4% TCA were added. After vortexing for 30 seconds, the tubes were centrifuged in a microfuge at top speed (13.2 k rpm) for 5 minutes. The supernatant was collected, and 45 μl of the supernatant was transferred to a glass LC/MS/MS vial (Kimble, 11 mm, 1.5 ml) for analysis, which allowed determination of tissue levels of EPIs at the end of the infusion and 2 h or 4 h later.
# [2] = test system: P. aeruginosa strain PAM1723 overexpressing MexAB-OprM efflux pump; test: Neutropenic mice thigh model of PA infection; assay type: in vivo; conditions: levofloxacin 30 mg/kg SQ, EPI 60 mg/kg IP, 2 hours post-infection
# Method: Efficacy of the EPIs was evaluated in a Neutropenic Mice Thigh Model of P. aeruginosa Infection. Neutropenia was induced by cyclophosphamide 100 mg/kg IP on days 3 and 1 prior to infection. P. aeruginosa strain PAM1723 overexpressing MexAB-OprM efflux pump was grown overnight in Mueller-Hinton Broth (MHB). The next day, the overnight culture was diluted in fresh MHB and was allowed to re-grow to ˜10^8 CFU/mL (OD600˜0.3). The culture was spun down, washed twice with phosphate buffered saline (PBS) and re-suspend in PBS to ˜4×10^6 CFU/mL. Next, this culture was mixed 1:1 with 14% hog-gastric mucin in PBS to give a final inoculum of 2×10^6 CFU/mL. Infection was initiated with injection of 0.1 mL of inoculum (˜2×10^5 CFU/thigh) directly into both thighs of each mouse. Two mice from each treatment group were euthanized at various times after the start of treatment. The thighs were removed aseptically, homogenized in saline, and immediately plated to determine bacterial load (CFU/ml). Treatment was initiated 2 hours post infection.
# [3] = In vitro stability in rat serum and tissue homogenates (LC/MS/MS); assay type: in vitro ADME
# [4] = Rat serum pharmacokinetics after 2-hour IV infusion; assay type: in vivo; conditions: serum, 2-hour IV infusion, total dose 10 mg/kg, two-compartment model
# Method: Rat serum pharmacokinetics of compounds 1, 3, 7, and 21 was evaluated after 2-hour IV infusion of 1 mg/ml EPI solution in 0.9% saline. Total infused dose was 10 mg/kg. FIG. 12 depicts the serum concentrations as a function of time. A two-compartment model was used to fit the data and calculate PK parameters.
compound,measurement,setting,value
"NCCC[C@H](N)C(=O)N[C@H](CCc1ccccc1)C(=O)Nc1cnc2ccccc2c1 [Compound 3, 2-(S),5-Diamino-pentanoic acid [3-phenyl-1-(R)-(quinolin-3-ylcarbamoyl)-propyl]-amide]",2 h/4 h Ratio,[1]; rat brain concentration,0.35
same,concentration at 4 h,[1]; rat brain,210 ng/mL
same,concentration at 2 h,[1]; rat brain,70 ng/mL
same,2 h/4 h Ratio,[1]; rat heart concentration,4.82
same,concentration at 4 h,[1]; rat heart,470 ng/mL
same,concentration at 2 h,[1]; rat heart,2260 ng/mL
same,2 h/4 h Ratio,[1]; rat kidney concentration,7.28
same,concentration at 4 h,[1]; rat kidney,1680 ng/mL
same,concentration at 2 h,[1]; rat kidney,12200 ng/mL
same,2 h/4 h Ratio,[1]; rat liver concentration,1.60
same,concentration at 4 h,[1]; rat liver,830 ng/mL
same,concentration at 2 h,[1]; rat liver,1330 ng/mL
same,2 h/4 h Ratio,[1]; rat lung concentration,2.23
same,concentration at 4 h,[1]; rat lung,1910 ng/mL
same,concentration at 2 h,[1]; rat lung,4270 ng/mL
same,2 h/4 h Ratio,[1]; rat muscle concentration,1.91
same,concentration at 4 h,[1]; rat muscle,1140 ng/mL
same,concentration at 2 h,[1]; rat muscle,2180 ng/mL
same,2 h/4 h Ratio,[1]; rat pancreas concentration,2.91
same,concentration at 4 h,[1]; rat pancreas,380 ng/mL
same,concentration at 2 h,[1]; rat pancreas,1110 ng/mL
same,2 h/4 h Ratio,[1]; rat spleen concentration,6.16
same,concentration at 4 h,[1]; rat spleen,720 ng/mL
same,concentration at 2 h,[1]; rat spleen,4410 ng/mL
same,2 h/4 h Ratio,[1]; rat testicles concentration,5.14
same,concentration at 4 h,[1]; rat testicles,60 ng/mL
same,concentration at 2 h,[1]; rat testicles,320 ng/mL
same,2 h/4 h Ratio,[1]; rat thymus concentration,1.69
same,concentration at 4 h,[1]; rat thymus,1460 ng/mL
same,concentration at 2 h,[1]; rat thymus,2460 ng/mL
same,tissue levels and clearance from tissues after 2-hour IV infusion,"[1]; rat, in words",Lower levels
same,"bacterial load in thighs, EPI with levofloxacin versus levofloxacin alone",[2],potentiated levofloxacin in vivo
same,stability in supernatant versus pellet of kidney tissue homogenates,[3]; after 5 min. centrifugation,Greater instability
same,stability in rat serum,[3]; in words,at least as stable as 1
same,stability in supernatant of rat kidney tissue homogenates,[3]; in words,supernatant instability was selective to compound 3
same,stability in tissue homogenates at pH lowered to about 6 versus no pH change,"[3]; rat kidney, liver, lung homogenates, acetic acid",degraded faster
same,stability in kidney and liver,"[3]; rat tissue homogenates, in words",more unstable than 1
same,clearance,[4],23.3 mL/min/kg

# Source: patent US7879795B2, “Enhancement of tigecycline potency using efflux pump inhibitors” (Mpex Pharmaceuticals, Inc., priority 2004, dated 2011)
